Measurements from PubChem BioAssay (NCI).
Several values for one entry are separate records, joined by “and”; a condition that tells them apart may be missing. Identical values can stand only once.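 The compound was tested at five concentrations on cells cultured in 96-well plates, with a 48-hour exposure period. The concentration for 50% growth inhibition is given as GI50. TGI marks complete inhibition of growth.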

Key:
Test in all cases: NCI-60 cell line screen, 48 h
[1] = system: HS 578T breast
[2] = system: MOLT-4 leukemia
[3] = system: LOX IMVI melanoma
[4] = system: SR leukemia
[5] = system: MCF7 breast
[6] = system: SK-MEL-2 melanoma
[7] = system: A498 renal
[8] = system: OVCAR-4 ovarian
[9] = system: UACC-62 melanoma
[10] = system: OVCAR-3 ovarian

COc1cc2cn3c4ccc(O)cc4nc(N)c3c2cc1OC
GI50 [1]: 0.626 µM | TGI [1]: 22.2 µM | GI50 [2]: 0.483 µM | TGI [2]: 4.33 µM | GI50 [3]: 0.0621 µM | TGI [3]: 1.79 µM | GI50 [4]: 0.0119 µM | TGI [4]: 1.39 µM | GI50 [5]: 0.174 µM | TGI [5]: 4.15 µM | GI50 [6]: 1.89 µM | TGI [6]: 7.61 µM | GI50 [7]: 0.141 µM | TGI [7]: 1.06 µM | GI50 [8]: 0.651 µM | TGI [8]: 12.4 µM | GI50 [9]: 0.0705 µM | TGI [9]: 1.63 µM | GI50 [10]: 0.231 µM | TGI [10]: 3 µM

COc1ccc2[nH]c3c(C)c4cc[n+](C)cc4c(C)c3c2c1
TGI [1]: 1.13 µM and 0.759 µM | GI50 [2]: 653 nM [middle of 4 runs] | GI50 [3]: 3.98 µM and 3.32 µM | TGI [3]: 37 µM [middle of 4 runs] | TGI [4]: 49.1 µM and > 209 µM | GI50 [5]: 1.51 µM and 0.885 µM | GI50 [6]: 4.87 µM | TGI [6]: 13.8 µM [middle of 4 runs] | TGI [7]: 51.9 µM [middle of 4 runs] | GI50 [8]: 2.18 µM | TGI [8]: 15.9 µM [middle of 4 runs] | GI50 [9]: 1.28 µM and 7.39 µM | GI50 [10]: 0.246 µM

CSC1=Nc2c(c(C)c(-c3ccccc3)n2CCCCl)C2=NC(=O)CN12
GI50 [1]: 6.3 µM | TGI [1]: 35 µM | GI50 [2]: 3.93 µM | TGI [2]: > 100 µM | GI50 [3]: 4.13 µM | TGI [3]: 17.6 µM | GI50 [4]: 3.45 µM | TGI [4]: > 100 µM | GI50 [5]: 3.42 µM | TGI [5]: 16.5 µM | GI50 [6]: 10.4 µM | TGI [6]: 27.6 µM | GI50 [7]: 3.89 µM | TGI [7]: 15 µM | GI50 [8]: 6.74 µM | TGI [8]: 44.9 µM | GI50 [9]: 2.08 µM | TGI [9]: 11.6 µM | GI50 [10]: 8.28 µM | TGI [10]: 36.2 µM

CC(N)(Cc1c[nH]c2ccccc12)C(=O)O (stereo not drawn)
GI50 [1]: 1090 µM | TGI [1]: > 2500 µM | GI50 [2]: > 2500 µM | TGI [2]: > 2500 µM | GI50 [3]: > 2500 µM | TGI [3]: > 2500 µM | GI50 [4]: > 2500 µM | TGI [4]: > 2500 µM | GI50 [5]: > 2500 µM | TGI [5]: > 2500 µM | GI50 [6]: > 2500 µM | TGI [6]: > 2500 µM | GI50 [7]: > 2500 µM | TGI [7]: > 2500 µM | GI50 [8]: > 2500 µM | TGI [8]: > 2500 µM | GI50 [9]: > 2500 µM | TGI [9]: > 2500 µM | GI50 [10]: > 2500 µM | TGI [10]: > 2500 µM

O=C(C[C@@]1(O)C(=O)Nc2c(Cl)ccc(Cl)c21)c1ccc(C2CC2)cc1
GI50 [1]: 0.305 µM | TGI [1]: 10 µM | GI50 [2]: 0.505 µM | TGI [2]: 14.6 µM | GI50 [3]: 0.541 µM | TGI [3]: 13.9 µM | GI50 [4]: 0.0527 µM | TGI [4]: 15.4 µM | GI50 [5]: 0.171 µM | TGI [5]: 18.2 µM | GI50 [6]: 0.515 µM | TGI [6]: 18 µM | GI50 [7]: 0.213 µM | TGI [7]: 0.75 µM | GI50 [8]: 6.01 µM | TGI [8]: 39.8 µM | GI50 [9]: 0.378 µM | TGI [9]: 15.6 µM | GI50 [10]: 0.264 µM | TGI [10]: 3.71 µM

[C-]#[O+].[C-]#[O+].[Ir].[O-]c1ccc2ccccc2c1N=Nc1ccccc1
TGI [1]: > 100 µM | TGI [2]: 50.2 µM | TGI [3]: 24.6 µM | TGI [4]: > 56.4 µM | TGI [5]: 21 µM | TGI [6]: 49.1 µM | TGI [7]: 33.3 µM | TGI [8]: 24.7 µM | TGI [9]: 29.2 µM | TGI [10]: 17 µM

CC(C)[C@](O)(C(=O)OCC1=CC[N+]2([O-])CC[C@@H](O)[C@@H]12)[C@H](C)O (stereo partly drawn)
TGI [1]: > 10000 µM | TGI [2]: > 10000 µM | TGI [3]: > 10000 µM | TGI [4]: > 10000 µM | TGI [5]: > 10000 µM | TGI [6]: > 10000 µM | TGI [7]: > 10000 µM | TGI [8]: > 10000 µM | TGI [9]: 9920 µM | TGI [10]: > 10000 µM

FC(F)(F)c1[nH]ncc1-c1nc2c(N3CCCCC3)cc3[nH]ncc3c2c2c1CCCC2
GI50 [1]: 0.603 µM | TGI [1]: 2 µM | GI50 [2]: 0.744 µM | TGI [2]: 2.78 µM | GI50 [3]: 0.656 µM | TGI [3]: 1.43 µM | GI50 [4]: 0.235 µM | TGI [4]: > 50 µM | GI50 [5]: 0.514 µM | TGI [5]: > 15.4 µM | GI50 [6]: 0.968 µM | TGI [6]: 2.31 µM | GI50 [7]: 0.0566 µM | TGI [7]: 0.196 µM | GI50 [8]: 1.42 µM | TGI [8]: > 15.3 µM | GI50 [9]: 0.391 µM | TGI [9]: 1.41 µM | GI50 [10]: 1.07 µM | TGI [10]: 3.14 µM

Cc1cc(O)c(C2=NN(c3ccc(S(N)(=O)=O)cc3)C(c3ccccc3O)C2)cc1Cl (stereo not drawn)
GI50 [1]: 2.95 µM | TGI [1]: 10.5 µM | GI50 [2]: 3.11 µM | TGI [2]: 12.2 µM | GI50 [3]: 1.63 µM | TGI [3]: 3.03 µM | GI50 [4]: 2.22 µM | TGI [4]: 26.7 µM | GI50 [5]: 2.25 µM | TGI [5]: 6.12 µM | GI50 [6]: 4.85 µM | TGI [6]: 11.6 µM | GI50 [7]: 1.69 µM | TGI [7]: 7.29 µM | GI50 [8]: 2.89 µM | TGI [8]: 9.58 µM | GI50 [9]: 2.18 µM | TGI [9]: 6.59 µM | GI50 [10]: 2.61 µM | TGI [10]: 7.62 µM

COc1ccc(-c2ccc3ncc4c(c3c2)n(-c2ccc(N3CCNCC3)c(C(F)(F)F)c2)c(=O)n4C)cn1
GI50 [1]: < 0.01 µM and 0.00197 µM | TGI [1]: 0.0181 µM and 0.013 µM | GI50 [2]: < 0.01 µM and 0.00654 µM | TGI [2]: 0.186 µM and 0.143 µM | GI50 [3]: < 0.01 µM and 0.00403 µM | TGI [3]: 0.359 µM and 0.0882 µM | GI50 [4]: 0.02 µM and 0.00681 µM | TGI [4]: 0.266 µM and 0.365 µM | GI50 [5]: 0.0035 µM | TGI [5]: 0.0793 µM | GI50 [6]: < 0.01 µM and 0.0101 µM | TGI [6]: 0.0369 µM and 0.044 µM | GI50 [7]: < 0.01 µM and 0.00224 µM | TGI [7]: < 0.01 µM and 0.012 µM | GI50 [8]: < 0.01 µM and 0.0029 µM | TGI [8]: 0.0207 µM and 0.0252 µM | GI50 [9]: < 0.01 µM and 0.00599 µM | TGI [9]: 0.0269 µM and 0.0286 µM | GI50 [10]: < 0.01 µM and 0.00596 µM | TGI [10]: 0.341 µM and 0.497 µM

Cc1c2cnccc2c(C)c2c1c1cc(C(=O)O)ccc1n2C
GI50 [1]: 0.891 µM | TGI [1]: 4.82 µM | GI50 [2]: 0.53 µM | TGI [2]: 3.38 µM | GI50 [3]: 0.579 µM | TGI [3]: 4.18 µM | GI50 [4]: 0.435 µM | TGI [4]: 3.98 µM | GI50 [5]: 1.02 µM | TGI [5]: 13.6 µM | GI50 [6]: 1.38 µM | TGI [6]: 4.03 µM | GI50 [7]: 0.41 µM | TGI [7]: 2.14 µM | GI50 [8]: 1.43 µM | TGI [8]: 6.59 µM | GI50 [9]: 0.546 µM | TGI [9]: 2.12 µM | GI50 [10]: 1.35 µM | TGI [10]: 5.68 µM

COc1cc(OC)cc(-c2ccc(-c3ccc(C(=N)N)s3)s2)c1
GI50 [1]: 1.35 µM | TGI [1]: 3.22 µM | GI50 [2]: 0.396 µM and 0.23 µM | TGI [2]: 1.12 µM and 0.486 µM | GI50 [3]: 0.221 µM | TGI [3]: 0.495 µM | GI50 [4]: 0.331 µM and 0.244 µM | TGI [4]: 0.918 µM and 0.598 µM | GI50 [5]: 0.271 µM | TGI [5]: 1.22 µM | GI50 [6]: 1.62 µM | TGI [6]: 3.14 µM | GI50 [7]: 1.46 µM | TGI [7]: 3.05 µM | GI50 [8]: 1.44 µM | TGI [8]: 3.62 µM | GI50 [9]: 1.75 µM | TGI [9]: 3.53 µM | GI50 [10]: 1.81 µM | TGI [10]: 3.76 µM
